Data: patent US4599414A, “Theophylline derivatives” (Eisai Co., Ltd., priority 1979, dated 1986)

System: contractile response to histamine, terminal ileum
Test: Antihistaminic action: inhibition of contractile response to histamine (10^-6 M) in isolated terminal ileum
Assay type: cell-based, guinea-pig
Settings: Cavia porcellus, 0.05 h; antagonist 10^-6 M, 3 min contact, before washing; read-out: Inhibitory rate before washing
Protocol: The terminal ileum was removed from a starved guinea-pig and set up in an organ bath containing Tyrode solution maintained at 26° C. Contractile tension was recorded isometrically under a tension of 1.5 g with a strain-gauge transducer. After obtaining control response to histamine (10^-6 M), antagonists were added to the bath and allowed to remain in contact with the tissue for 3 minutes. Contractile response to histamine in the presence of the antagonists was recorded and the inhibitory rate was calculated according to the following equation: [formula] The tissue was then washed at 10 min intervals with fresh Tyrode solution. Contractile response to histamine was tested after each wash in order to study the duration of action of the antagonists.

SMILES | inhibition at 1 µM
Cn1c(=O)c2c(ncn2CCCN2CCCN(Cc3ccc(Cl)cc3Cl)CC2)n(C)c1=O [(7)] | 96%
Cn1c(=O)c2c(ncn2CCCN2CCCN(Cc3ccc(F)cc3)CC2)n(C)c1=O [(9)] | 100%

Same assay, conditions: Cavia porcellus, 0.05 h; antagonist 10^-7 M, 3 min contact, before washing; read-out: Inhibitory rate before washing

SMILES | inhibition at 0.1 µM
Cn1c(=O)c2c(ncn2CCCN2CCCN(Cc3ccc(Cl)c(Cl)c3)CC2)n(C)c1=O [(8)] | 65%
Cn1c(=O)c2c(ncn2CCCN2CCCN(Cc3ccccc3)CC2)n(C)c1=O [(11)] | 78%
CC(CN1c2ccccc2Sc2ccccc21)N(C)C (centres unmarked) [(1), Promethazine, reference compound] | 87%
Cn1c(=O)c2c(ncn2CCCN2CCCN(Cc3ccc(Cl)cc3Cl)CC2)n(C)c1=O [(7)] | 78%
Cn1c(=O)c2c(ncn2CCCN2CCCN(Cc3ccc(F)cc3)CC2)n(C)c1=O [(9)] | 77%

Same assay, conditions: Cavia porcellus, 0.05 h; antagonist 10^-8 M, 3 min contact, before washing; read-out: Inhibitory rate before washing

SMILES | inhibition at 0.01 µM
Cn1c(=O)c2c(ncn2CCCN2CCCN(Cc3ccc(Cl)c(Cl)c3)CC2)n(C)c1=O [(8)] | 11%
Cn1c(=O)c2c(ncn2CCCN2CCCN(Cc3ccccc3)CC2)n(C)c1=O [(11)] | 0%
CC(CN1c2ccccc2Sc2ccccc21)N(C)C (centres unmarked) [(1), Promethazine, reference compound] | 37%
Cn1c(=O)c2c(ncn2CCCN2CCCN(Cc3ccc(Cl)cc3Cl)CC2)n(C)c1=O [(7)] | 6%
Cn1c(=O)c2c(ncn2CCCN2CCCN(Cc3ccc(F)cc3)CC2)n(C)c1=O [(9)] | 10%

Same assay, conditions: Cavia porcellus; antagonist 10^-6 M, after 1st washing; read-out: Inhibitory rate after 1st washing

SMILES | inhibition at 1 µM
Cn1c(=O)c2c(ncn2CCCN2CCCN(Cc3ccc(Cl)cc3Cl)CC2)n(C)c1=O [(7)] | 100%
Cn1c(=O)c2c(ncn2CCCN2CCCN(Cc3ccc(F)cc3)CC2)n(C)c1=O [(9)] | 27%

Same assay, conditions: Cavia porcellus; antagonist 10^-6 M, after 2nd washing; read-out: Inhibitory rate after 2nd washing

SMILES | inhibition at 1 µM
Cn1c(=O)c2c(ncn2CCCN2CCCN(Cc3ccc(Cl)cc3Cl)CC2)n(C)c1=O [(7)] | 100%
Cn1c(=O)c2c(ncn2CCCN2CCCN(Cc3ccc(F)cc3)CC2)n(C)c1=O [(9)] | 5%

Same assay, conditions: Cavia porcellus; antagonist 10^-6 M, after 3rd washing; read-out: Inhibitory rate after 3rd washing

SMILES | inhibition at 1 µM
Cn1c(=O)c2c(ncn2CCCN2CCCN(Cc3ccc(Cl)cc3Cl)CC2)n(C)c1=O [(7)] | 100%
Cn1c(=O)c2c(ncn2CCCN2CCCN(Cc3ccc(F)cc3)CC2)n(C)c1=O [(9)] | 0%

Same assay, conditions: Cavia porcellus; antagonist 10^-7 M, after 1st washing; read-out: Inhibitory rate after 1st washing

SMILES | inhibition at 0.1 µM
Cn1c(=O)c2c(ncn2CCCN2CCCN(Cc3ccc(Cl)c(Cl)c3)CC2)n(C)c1=O [(8)] | 55%
Cn1c(=O)c2c(ncn2CCCN2CCCN(Cc3ccccc3)CC2)n(C)c1=O [(11)] | 10%
CC(CN1c2ccccc2Sc2ccccc21)N(C)C (centres unmarked) [(1), Promethazine, reference compound] | 77%
Cn1c(=O)c2c(ncn2CCCN2CCCN(Cc3ccc(Cl)cc3Cl)CC2)n(C)c1=O [(7)] | 59%
Cn1c(=O)c2c(ncn2CCCN2CCCN(Cc3ccc(F)cc3)CC2)n(C)c1=O [(9)] | 20%

Same assay, conditions: Cavia porcellus; antagonist 10^-7 M, after 2nd washing; read-out: Inhibitory rate after 2nd washing

SMILES | inhibition at 0.1 µM
Cn1c(=O)c2c(ncn2CCCN2CCCN(Cc3ccc(Cl)c(Cl)c3)CC2)n(C)c1=O [(8)] | 28%
Cn1c(=O)c2c(ncn2CCCN2CCCN(Cc3ccccc3)CC2)n(C)c1=O [(11)] | 4%
CC(CN1c2ccccc2Sc2ccccc21)N(C)C (centres unmarked) [(1), Promethazine, reference compound] | 56%
Cn1c(=O)c2c(ncn2CCCN2CCCN(Cc3ccc(Cl)cc3Cl)CC2)n(C)c1=O [(7)] | 52%
Cn1c(=O)c2c(ncn2CCCN2CCCN(Cc3ccc(F)cc3)CC2)n(C)c1=O [(9)] | 13%

Same assay, conditions: Cavia porcellus; antagonist 10^-7 M, after 3rd washing; read-out: Inhibitory rate after 3rd washing

SMILES | inhibition at 0.1 µM
Cn1c(=O)c2c(ncn2CCCN2CCCN(Cc3ccc(Cl)c(Cl)c3)CC2)n(C)c1=O [(8)] | 28%
Cn1c(=O)c2c(ncn2CCCN2CCCN(Cc3ccccc3)CC2)n(C)c1=O [(11)] | 0%
CC(CN1c2ccccc2Sc2ccccc21)N(C)C (centres unmarked) [(1), Promethazine, reference compound] | 37%
Cn1c(=O)c2c(ncn2CCCN2CCCN(Cc3ccc(Cl)cc3Cl)CC2)n(C)c1=O [(7)] | 30%
Cn1c(=O)c2c(ncn2CCCN2CCCN(Cc3ccc(F)cc3)CC2)n(C)c1=O [(9)] | 5%

Same assay, conditions: Cavia porcellus; antagonist 10^-8 M, after 1st washing; read-out: Inhibitory rate after 1st washing

SMILES | inhibition at 0.01 µM
Cn1c(=O)c2c(ncn2CCCN2CCCN(Cc3ccc(Cl)c(Cl)c3)CC2)n(C)c1=O [(8)] | 29%
Cn1c(=O)c2c(ncn2CCCN2CCCN(Cc3ccccc3)CC2)n(C)c1=O [(11)] | 0%
CC(CN1c2ccccc2Sc2ccccc21)N(C)C (centres unmarked) [(1), Promethazine, reference compound] | 44%
Cn1c(=O)c2c(ncn2CCCN2CCCN(Cc3ccc(Cl)cc3Cl)CC2)n(C)c1=O [(7)] | 42%
Cn1c(=O)c2c(ncn2CCCN2CCCN(Cc3ccc(F)cc3)CC2)n(C)c1=O [(9)] | 7%

Same assay, conditions: Cavia porcellus; antagonist 10^-8 M, after 2nd washing; read-out: Inhibitory rate after 2nd washing

SMILES | inhibition at 0.01 µM
Cn1c(=O)c2c(ncn2CCCN2CCCN(Cc3ccc(Cl)c(Cl)c3)CC2)n(C)c1=O [(8)] | 19%
Cn1c(=O)c2c(ncn2CCCN2CCCN(Cc3ccc(Cl)cc3Cl)CC2)n(C)c1=O [(7)] | 46%
Cn1c(=O)c2c(ncn2CCCN2CCCN(Cc3ccc(F)cc3)CC2)n(C)c1=O [(9)] | 7%

Same assay, conditions: Cavia porcellus; antagonist 10^-8 M, after 3rd washing; read-out: Inhibitory rate after 3rd washing

SMILES | inhibition at 0.01 µM
Cn1c(=O)c2c(ncn2CCCN2CCCN(Cc3ccc(Cl)cc3Cl)CC2)n(C)c1=O [(7)] | 46%
Cn1c(=O)c2c(ncn2CCCN2CCCN(Cc3ccc(F)cc3)CC2)n(C)c1=O [(9)] | 1%

Same assay, conditions: antagonist 10^-6 M, after 4th washing

SMILES | Inhibitory rate after 4th washing
Cn1c(=O)c2c(ncn2CCCN2CCCN(Cc3ccc(Cl)cc3Cl)CC2)n(C)c1=O [(7)] | 83%

Same assay, conditions: antagonist 10^-6 M, after 5th washing

SMILES | Inhibitory rate after 5th washing
Cn1c(=O)c2c(ncn2CCCN2CCCN(Cc3ccc(Cl)cc3Cl)CC2)n(C)c1=O [(7)] | 87%

Same assay, conditions: antagonist 10^-6 M, after 6th washing

SMILES | Inhibitory rate after 6th washing
Cn1c(=O)c2c(ncn2CCCN2CCCN(Cc3ccc(Cl)cc3Cl)CC2)n(C)c1=O [(7)] | 85%

Same assay, conditions: antagonist 10^-7 M, after 4th washing

SMILES | Inhibitory rate after 4th washing
Cn1c(=O)c2c(ncn2CCCN2CCCN(Cc3ccc(Cl)c(Cl)c3)CC2)n(C)c1=O [(8)] | 20%

Same assay, conditions: antagonist 10^-8 M, after 5th washing

SMILES | Inhibitory rate after 5th washing
Cn1c(=O)c2c(ncn2CCCN2CCCN(Cc3ccc(Cl)cc3Cl)CC2)n(C)c1=O [(7)] | 32%

Same assay, conditions: antagonist 10^-8 M, after 6th washing

SMILES | Inhibitory rate after 6th washing
Cn1c(=O)c2c(ncn2CCCN2CCCN(Cc3ccc(Cl)cc3Cl)CC2)n(C)c1=O [(7)] | 18%

Same assay, conditions: antagonist 10^-8 M, after 7th washing

SMILES | Inhibitory rate after 7th washing
Cn1c(=O)c2c(ncn2CCCN2CCCN(Cc3ccc(Cl)cc3Cl)CC2)n(C)c1=O [(7)] | 14%
